Source: BindingDB's records for doi:10.1021/jm001111b (Louis Pasteur University, 2001)

Assay: Displacement of [3H]clonidine from imidazoline receptor I-1 of bovine chromaffin cell membranes

Row | SMILES | Ki
1 | C1COC(NC(C2CC2)C2CC2)=N1 [CHEBI:8862] | 74 nM
2 | C1CN=C(NC(C2CC2)C2CC2)C1 | 513 nM
3 | CC1CC(NC(C2CC2)C2CC2)=NC1C (stereo unspecified) | 537 nM
4 | CC1CN=C(NC(C2CC2)C2CC2)C1 (stereo unspecified) | 646 nM
5 | CCC1CCC(NC(C2CC2)C2CC2)=N1 (stereo unspecified) | 170 nM
6 | CC1CCC(NC(C2CC2)C2CC2)=N1 (stereo unspecified) | 1580 nM
